One assay concerns the target T1, hNET (Homo sapiens, UniProt P23975).
T1 construct: expressed in transfected cells; host or cells: HEK-293 derived cell line, stably transfected; membrane preparation
In words: hNET binding assay (Assay 1). As to conditions: read-out: NET pKi (converted). As for the experimental part:
(§1) Membrane radioligand binding assays were used to measure competitive inhibition of labeled ligand (^3H-citalopram or ^3H-nisoxetine or ^3H-WIN35428) binding to membranes prepared from cells expressing the respective human recombinant transporter (hSERT or hNET or hDAT) in order to determine the pKi values of test compounds at the transporters.
(§2) Recombinant human embryonic kidney (HEK-293) derived cell lines stably transfected with hSERT or hNET, respectively, were grown in DMEM medium supplemented with 10% dialyzed FBS (for hSERT) or FBS (for hNET), 100 μg/ml penicillin, 100 μg/ml streptomycin, 2 mM L-glutamine and 250 μg/ml of the aminoglycoside antibiotic G418, in a 5% CO2 humidified incubator at 37° C. When cultures reached 80% confluence, the cells were washed thoroughly in PBS (without Ca^2+ and Mg^2+) and lifted with 5 mM EDTA in PBS. Cells were pelleted by centrifugation, resuspended in lysis buffer (10 mM Tris-HCl, pH 7.5 containing 1 mM EDTA), homogenized, pelleted by centrifugation, then resuspended in 50 mM Tris-HCl, pH 7.5 and 10% sucrose at 4° C. Protein concentration of the membrane suspension was determined using a Bio-Rad Bradford Protein Assay kit. Membranes were snap frozen and stored at −80° C. Chinese hamster ovary membranes expressing hDAT (CHO-DAT) were purchased from PerkinElmer and stored at −80° C.
(§3) Stock solutions (10 mM in DMSO) of test compound were prepared and serial dilutions made using Dilution Buffer (50 mM Tris-HCl, 120 mM NaCl, 5 mM KCl, pH 7.4, 0.1% BSA, 400 μM ascorbic acid).
(§4) Following a 60 minute incubation at 22° C. (or a period sufficient to reach equilibrium), the membranes were harvested by rapid filtration over a 96-well UniFilter GF/B plate, pretreated with 0.3% polyethyleneimine, and washed 6 times with 300 μl wash buffer (50 mM Tris-HCl, 0.9% NaCl, pH 7.5 at 4° C.). Plates were dried overnight at room temperature, ˜45 μl of MicroScint™-20 (Perkin Elmer) added and bound radioactivity quantitated via liquid scintillation spectroscopy. Competitive inhibition curves and saturation isotherms were analyzed using GraphPad Prism Software package (GraphPad Software, Inc., San Diego, Calif.). IC50 values were generated from concentration response curves using the Sigmoidal Dose Response (variable slope) algorithm in Prism GraphPad.

Another assay has as its target T2, hSERT (Homo sapiens, UniProt P31645).
T2 construct: expressed in transfected cells; host or cells: HEK-293 derived cell line, stably transfected; membrane preparation
In words: hSERT binding assay (Assay 1). As for the experimental part: as §1, §2, §3, §4

[1] abbreviates: ratio of SERT Ki to NET Ki from binding assays.
Where [2] appears, read: ratio of SERT Ki to NET Ki (binding).
The mark [3] stands for this setting: ratio of binding Ki at SERT to Ki at NET, the tables list only compounds with a ratio in the range 0.1-100.
Where [4] appears, read: ratio of binding Ki at hSERT to Ki at hNET, rounded off to the nearest tenth.

Read-outs that look alike come from different tables or passages of the source.

T2 sequence (P31645 whole entry): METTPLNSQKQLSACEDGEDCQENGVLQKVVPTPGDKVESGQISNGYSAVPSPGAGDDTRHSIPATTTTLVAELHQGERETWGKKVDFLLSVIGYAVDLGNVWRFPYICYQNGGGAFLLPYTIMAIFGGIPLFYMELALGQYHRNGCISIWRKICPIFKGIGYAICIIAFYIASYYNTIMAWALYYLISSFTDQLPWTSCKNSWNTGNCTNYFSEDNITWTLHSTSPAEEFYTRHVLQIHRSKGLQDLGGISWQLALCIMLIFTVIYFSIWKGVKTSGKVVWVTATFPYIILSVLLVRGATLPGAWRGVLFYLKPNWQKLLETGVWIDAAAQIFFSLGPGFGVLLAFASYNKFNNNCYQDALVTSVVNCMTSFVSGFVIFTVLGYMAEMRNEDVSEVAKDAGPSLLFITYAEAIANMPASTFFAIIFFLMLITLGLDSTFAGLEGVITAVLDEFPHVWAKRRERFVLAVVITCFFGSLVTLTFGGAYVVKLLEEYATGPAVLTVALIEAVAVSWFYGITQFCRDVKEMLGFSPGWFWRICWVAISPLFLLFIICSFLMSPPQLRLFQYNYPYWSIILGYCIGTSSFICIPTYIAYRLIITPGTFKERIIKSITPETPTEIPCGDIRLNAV
T1 sequence (P23975 whole entry): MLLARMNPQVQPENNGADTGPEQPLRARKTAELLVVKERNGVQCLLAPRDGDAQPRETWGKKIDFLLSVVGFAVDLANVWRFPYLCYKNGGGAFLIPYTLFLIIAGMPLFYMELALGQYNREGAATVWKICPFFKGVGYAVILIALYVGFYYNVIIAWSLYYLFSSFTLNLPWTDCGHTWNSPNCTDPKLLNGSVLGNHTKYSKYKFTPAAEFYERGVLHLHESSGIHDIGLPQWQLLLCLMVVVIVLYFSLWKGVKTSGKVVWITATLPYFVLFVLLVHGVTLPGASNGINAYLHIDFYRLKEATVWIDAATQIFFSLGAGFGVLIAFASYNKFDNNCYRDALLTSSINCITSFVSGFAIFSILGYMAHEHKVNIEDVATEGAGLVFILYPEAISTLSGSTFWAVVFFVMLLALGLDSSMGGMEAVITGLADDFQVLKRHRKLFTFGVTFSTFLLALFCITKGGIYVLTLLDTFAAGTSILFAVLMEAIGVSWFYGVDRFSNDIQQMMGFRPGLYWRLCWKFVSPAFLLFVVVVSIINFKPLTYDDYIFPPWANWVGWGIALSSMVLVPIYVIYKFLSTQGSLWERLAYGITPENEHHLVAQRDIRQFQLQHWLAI

`Fc1ccc(F)c(OC(c2ccccc2)C2CCNC2)c1` (racemic) [29-1]: at hNET (hNET binding assay), the Ki was 2 nM. Also, the “SERT Ki/NET Ki” value at hSERT (setting [1]) amounted to 4. Regarding `Clc1cc(Cl)c(Cl)c(O[C@H](c2ccccc2Cl)[C@@H]2CCNC2)c1` (racemic) [39-4], the Ki on hNET (hNET binding) was 3.98 nM. In addition, the “SERT Ki/NET Ki” value on hSERT (setting [2]) was 0.1. The like results for `Cc1cc(F)cc([C@@H](Oc2c(Cl)ccc(C)c2Cl)[C@@H]2CCNC2)c1` (racemic) [41-23] were, in that order, 1.58 nM and 0.5. In the case of `FC(F)(F)c1cc(Cl)ccc1OC(c1ccccc1)C1CCNC1` (stereo not drawn) [27-21], the “SERT Ki/NET Ki” value at hSERT (setting [1]) was 0.6.

Turning to `Cc1ccc(OC(c2ccccc2)C2CCNC2)c([N+](=O)[O-])c1` (stereo not drawn) [27-33], the “SERT Ki/NET Ki” value on hSERT (setting [1]) stood at 1.6.

For the compound `Fc1ccc(Cl)c(O[C@H](c2ccccc2)[C@@H]2CCNC2)c1` [29-13], the “SERT Ki/NET Ki” value at hSERT (setting [1]) turned out to be 0.2. In the case of `Cc1ccc(Cl)cc1OC(c1ccccc1)C1CCNC1` (stereo not drawn) [29-18], the “SERT Ki/NET Ki” value at hSERT (setting [1]) is on record as 0.1. Still for that read-out and setting: with `COc1ccc(C)cc1OC(c1ccccc1)C1CCNC1` (stereo not drawn) [29-27] the figure was 2; with `Cc1cccc(Cl)c1OC(c1ccccc1)C1CCNC1` (stereo not drawn) [31-13], 0.6. Still for that read-out and setting: with `Fc1cc(F)cc(C(Oc2cc(Cl)ccc2F)C2CCNC2)c1` (stereo not drawn) [32-2] the figure was 2.5; with `COc1ccc(F)c(OC(c2ccccc2Cl)C2CCNC2)c1` (stereo not drawn) [32-3], 4; with `Clc1ccc(Cl)c(OC(c2ccccc2Cl)C2CCNC2)c1` (stereo not drawn) [32-7], 0.6. Same read-out and setting: the figure for `Fc1ccc(C(Oc2cc(Cl)ccc2Cl)C2CCNC2)cc1` (stereo not drawn) [32-11] is 4; for `COc1cccc(C(Oc2cc(Cl)ccc2Cl)C2CCNC2)c1` (stereo not drawn) [32-13] it is 0.3.

On to `N#Cc1cccc(C(Oc2cc(Cl)ccc2Cl)C2CCNC2)c1` (stereo not drawn) [32-15], for which the “SERT Ki/NET Ki” value on hSERT (setting [1]) is given as 13.

Take `NC(=O)c1cccc([C@H](Oc2cc(Cl)ccc2Cl)[C@H]2CCNC2)c1` [32-17]: the “SERT Ki/NET Ki” value on hSERT (setting [1]) was 2.

Take `Fc1cc(F)cc(C(Oc2cc(Cl)ccc2Cl)C2CCNC2)c1` (stereo not drawn) [32-24]: at hSERT (setting [1]), the “SERT Ki/NET Ki” value worked out at 7.9.

For the compound `Fc1cc(F)cc([C@H](Oc2cc(Cl)ccc2Cl)[C@H]2CCNC2)c1` [32-25], the “SERT Ki/NET Ki” value on hSERT (setting [1]) stood at 25. As for `Cc1ccc(OC(c2ccccc2)C2CCNC2)cc1F` (stereo not drawn) [33-3], at hSERT (setting [1]), the “SERT Ki/NET Ki” value amounted to 0.3.

Turning to `Fc1cc(Cl)cc(OC(c2ccccc2)C2CCNC2)c1` (stereo not drawn) [34-4], on hSERT (setting [1]), the “SERT Ki/NET Ki” value was found to be 0.3. Consider `Fc1cc(F)cc(C(Oc2cc(Cl)cc(Cl)c2)C2CCNC2)c1` (stereo not drawn) [35-16], for which the “SERT Ki/NET Ki” value at hSERT (setting [2]) turned out to be 0.5.

Consider `Cc1ccc(Cl)c(OC(c2ccccc2)C2CCNC2)c1Cl` (stereo not drawn) [40-31], for which, on hSERT (setting [2]), the “SERT Ki/NET Ki” value is listed as 0.6.

`Cc1ccc(Cl)c(OC(c2ccccc2)C2CCNC2)c1Cl` (stereo not drawn) [40-32]: the “SERT Ki/NET Ki” value at hSERT (setting [2]) worked out at 1.

Regarding `Cc1ccc(Cl)c(OC(c2ccccc2)C2CCNC2)c1Cl` (stereo not drawn) [40-33], the “SERT Ki/NET Ki” value at hSERT (setting [2]) came out at 3.2.

For `Cc1ccc(Cl)c(OC(c2ccccc2)C2CCNC2)c1Cl` (stereo not drawn) [40-34], the “SERT Ki/NET Ki” value at hSERT (setting [2]) amounted to 0.1. For `Fc1cc(F)cc(C(Oc2c(Cl)ccc(Cl)c2Cl)C2CCNC2)c1` (stereo not drawn) [41-13], at hSERT (setting [2]), the “SERT Ki/NET Ki” value turned out to be 2. Same read-out and setting: with `Cc1cc(F)cc(C(Oc2c(Cl)ccc(C)c2Cl)C2CCNC2)c1` (stereo not drawn) [41-22] the figure was 0.3. In the case of `NC(=O)c1cccc(C(Oc2c(F)ccc(F)c2Cl)C2CCNC2)c1` (stereo not drawn) [41-38], the “SERT Ki/NET Ki” value at hSERT (setting [2]) is listed as 0.1. In the case of `N#Cc1cccc([C@H](Oc2c(F)cc(F)cc2F)[C@H]2CCNC2)c1` [45-3], at hSERT (setting [3]), the “SERT Ki/NET Ki” value is 3.2. On the same count and under the same terms, with `Fc1c(F)c(F)c(O[C@H](c2ccccc2)[C@@H]2CCNC2)c(F)c1F` [49-2] the figure was 0.2. Take `c1ccc(COc2ccccc2OC(c2ccccc2)C2CCNC2)cc1` (stereo not drawn) [Compound 19-23]: the “SERT Ki/NET Ki” value on hSERT (setting [4]) amounted to 3.2.

`Fc1c(Cl)cccc1OC(c1ccccc1)C1CCNC1` (stereo not drawn) [Compound 25-4]: the “SERT Ki/NET Ki” value at hSERT (setting [4]) is recorded as 5.

As to `c1ccc(OC(c2ccccc2)C2CCNC2)cc1` (stereo not drawn) [Ex. 17-1, 3-(Phenoxyphenylmethyl)pyrrolidine], the Ki on hNET (membranes of HEK-293 cells expressing hNET, 1.0 nM 3H-nisoxetine) is 6.31 nM.

(Values after patent US7888386B2, “3-(phenoxyphenylmethyl)pyrrolidine compounds” (Theravance, Inc., priority 2008, dated 2011).)
